This is an account of results in US20250346593A1, “IMIDAZO(1,2-1)PYRIDINE DERIVATIVES AS RIPK2 INHIBITORS” (Interline Therapeutics, Inc., priority 2022, published 2025).

For experiment [1], the target named is GST-RIPK2 fusion protein (human RIPK2 amino acids 1-310) (Homo sapiens (Human), UniProt O43353). Kind of experiment: RIPK2 binding competition assay (TR-FRET, Tracer 199). A general note: TR-FRET usually uses a lanthanide donor and a delayed reading to cut background.
Experiment [2] has as its system NF-κB pathway (SEAP) in THP1-Dual cells. Put plainly: THP-1 Dual cell SEAP assay (L18-MDP stimulated). The class given is cell-based. The note with it: Homo sapiens, THP1-Dual, read-out: NFkB THP1 IC50.
[3] abbreviates: read-out: RIPK2 IC50, RIPK2 binding competition assay.

Like-named read-outs stand apart in the source and are kept apart here.

By IC50 is commonly meant the midpoint of a concentration-inhibition curve.

Chain of GST-RIPK2 fusion protein (human RIPK2 amino acids 1-310) (O43353 1-310): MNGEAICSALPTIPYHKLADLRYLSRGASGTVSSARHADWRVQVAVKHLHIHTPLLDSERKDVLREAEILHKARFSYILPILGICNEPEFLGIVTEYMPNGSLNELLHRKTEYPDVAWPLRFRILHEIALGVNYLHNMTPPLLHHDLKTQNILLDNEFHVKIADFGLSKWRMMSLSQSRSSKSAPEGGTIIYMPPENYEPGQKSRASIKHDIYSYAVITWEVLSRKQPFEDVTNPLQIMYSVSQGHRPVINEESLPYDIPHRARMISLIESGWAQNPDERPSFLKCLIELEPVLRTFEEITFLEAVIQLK

For the compound `CCCS(=O)(=O)Nc1cc(-c2cnc3cc(OC)c(S(=O)(=O)C4CC4)cn23)ccc1OC` [Example 288, N-(5-(6-(cyclopropylsulfonyl)-7-methoxyimidazo[1,2-a]pyridin-3-yl)-2-methoxyphenyl)propane-1-sulfonamide], the IC50 in experiment [1] is 0.0025 to 0.02 µM; in experiment [2] it was more than 1 µM.
For the compound `CCCS(=O)(=O)Nc1cc(COC)cc(-c2cnc3cc(OC)c(S(=O)(=O)C(C)(C)C)cn23)c1` [Example 289, N-(3-(6-(tert-butylsulfonyl)-7-methoxyimidazo[1,2-a]pyridin-3-yl)-5-(methoxymethyl)phenyl) propane-1-sulfonamide], the values for the IC50 in experiment [1] and in experiment [2] were 0.0025 to 0.02 µM and 0.25 to 1 µM, respectively.
Turning to `CCCS(=O)(=O)Nc1cc(-c2cnc3cc(OC)c(S(=O)(=O)C(C)(C)C)cn23)cc(C)c1F` [Example 290, N-(5-(6-(tert-butylsulfonyl)-7-methoxyimidazo[1,2-a]pyridin-3-yl)-2-fluoro-3-methylphenyl)propane-1-sulfonamide], the IC50 in experiment [1] was 0.0025 to 0.02 µM; in experiment [2], more than 1 µM.
Turning to `CCCS(=O)(=O)Nc1cc(-c2cnc3cc(OC)c(S(=O)(=O)C(C)(C)C)cn23)ccc1F` [Example 291, N-(5-(6-(tert-butylsulfonyl)-7-methoxyimidazo[1,2-a]pyridin-3-yl)-2-fluorophenyl)propane-1-sulfonamide], the IC50 is 0.0025 to 0.02 µM in experiment [1] and 0.25 to 1 µM in experiment [2].
In the case of `CCCS(=O)(=O)Nc1cc(F)cc(-c2cnc3cc(OC)c(S(=O)(=O)C(C)(C)C)cn23)c1F` [Example 292, N-(3-(6-(tert-butylsulfonyl)-7-methoxyimidazo[1,2-a]pyridin-3-yl)-2,5-difluorophenyl)propane-1-sulfonamide], the IC50 is 0.0025 to 0.02 µM in experiment [1] and more than 1 µM in experiment [2].
With `CCCS(=O)(=O)Nc1ccc(-c2cnc3cc(OC)c(S(=O)(=O)C(C)(C)C)cn23)cc1OC(F)F` [Example 293, N-(4-(6-(tert-butylsulfonyl)-7-methoxyimidazo[1,2-a]pyridin-3-yl)-2-(difluoromethoxy)phenyl) propane-1-sulfonamide], the IC50 is more than 0.02 µM in experiment [1] (setting [3]) and more than 1 µM in experiment [2].
In the case of `CCS(=O)(=O)Nc1cc(-c2cnc3cc(OC)c(S(=O)(=O)C(C)(C)C)cn23)cc(F)c1OC` [Example 294, N-(5-(6-(tert-butylsulfonyl)-7-methoxyimidazo[1,2-a]pyridin-3-yl)-3-fluoro-2-methoxyphenyl)ethane-sulfonamide], the IC50 in experiment [1] is less than 0.001 µM; in experiment [2], less than 0.05 µM.
As to `CCCS(=O)(=O)Nc1cc(OC(F)F)cc(-c2cnc3cc(OC)c(S(=O)(=O)C(C)(C)C)cn23)c1` [Example 295, N-(3-(6-(tert-butylsulfonyl)-7-methoxyimidazo[1,2-a]pyridin-3-yl)-5-(difluoromethoxy)phenyl) propane-1-sulfonamide], the figures for the half-inhibitory concentration (IC50) in experiment [1] and in experiment [2] were 0.001 to 0.0025 µM and 0.05 to 0.25 µM, respectively.
Regarding `CC(C)(C)S(=O)(=O)c1ccn2ncc(-c3cc(F)nc(NCCCO)c3)c2c1` [Example 296, 3-((4-(5-(tert-butylsulfonyl)pyrazolo [1,5-a]pyridin-3-yl)-6-fluoropyridin-2-yl)amino)propan-1-ol], the IC50 in experiment [1] was 0.001 to 0.0025 µM; in experiment [2], less than 0.05 µM.
Take `CC(C)(C)S(=O)(=O)c1ccn2ncc(-c3cc(N)nc(F)c3)c2c1` [Example 298, 4-(5-(tert-Butylsulfonyl)pyrazolo[1,5-a]pyridin-3-yl)-6-fluoropyridin-2-amine]: the IC50 was in the range of 0.0025 to 0.02 µM in experiment [1] and 0.05 to 0.25 µM in experiment [2].
With `CC(C)(C)S(=O)(=O)c1ccn2ncc(-c3ccc(F)nc3N)c2c1` [Example 299, 3-(5-(tert-butylsulfonyl)pyrazolo[1,5-a]pyridin-3-yl)-6-fluoropyridin-2-amine], the IC50 in experiment [1] was more than 0.02 µM; in experiment [2], more than 1 µM.
With `CC(C)(C)S(=O)(=O)c1ccn2ncc(-c3ccc(N)nc3F)c2c1` [Example 300, 5-(5-(tert-butylsulfonyl)pyrazolo[1,5-a]pyridin-3-yl)-6-fluoropyridin-2-amine], the results for the IC50 in experiment [1] and in experiment [2] were more than 0.02 µM and more than 1 µM, respectively.
As for `COc1cc2ncc(-c3cc(F)nc(NCC4CCNCC4)c3)n2cc1S(=O)(=O)C(C)(C)C` [Example 301, 4-(6-(tert-butylsulfonyl)-7-methoxyimidazo[1,2-a]pyridin-3-yl)-6-fluoro-N-(piperidin-4-ylmethyl)pyridin-2-amine], the IC50 in experiment [1] lay in the range of 0.001 to 0.0025 µM; in experiment [2], 0.05 to 0.25 µM.
`COc1cc(-c2cnc3cc(OC)c(S(=O)(=O)C(C)(C)C)cn23)cc(F)n1` [Example 302, 6-(tert-butylsulfonyl)-3-(2-fluoro-6-methoxypyridin-4-yl)-7-methoxyimidazo[1,2-a]pyridine]: the IC50 fell in the range of 0.0025 to 0.02 µM in experiment [1] and 0.25 to 1 µM in experiment [2].
As to `CCCS(=O)(=O)Nc1cc(-c2cnc3cc(OC)c(S(=O)(=O)C(C)(C)C)cn23)cc(F)n1` [Example 304, N-(4-(6-(tert-butylsulfonyl)-7-methoxyimidazo[1,2-a]pyridin-3-yl)-6-fluoropyridin-2-yl)propane-1-sulfonamide], the results for the IC50 in experiment [1] (setting [3]) and in experiment [2] were more than 0.02 µM and more than 1 µM, respectively.
On to `COc1cc2ncc(-c3cc(F)c(OC)c(Br)c3)n2cc1S(=O)(=O)C(C)(C)C` [Example 305, 3-(3-bromo-5-fluoro-4-methoxyphenyl)-6-(tert-butylsulfonyl)-7-methoxyimidazo[1,2-a]pyridine], for which the IC50 was 0.0025 to 0.02 µM in experiment [1] and more than 1 µM in experiment [2].
Take `COc1cc2ncc(-c3cc(F)c(OCCO)c(Br)c3)n2cc1S(=O)(=O)C(C)(C)C` [Example 306, 2-(2-bromo-4-(6-(tert-butylsulfonyl)-7-methoxyimidazo[1,2-a]pyridin-3-yl)-6-fluorophenoxy)ethan-1-ol]: the IC50 in experiment [1] was in the range of 0.0025 to 0.02 µM; in experiment [2] it was 0.05 to 0.25 µM.
As for `COc1cc2ncc(-c3cc(F)c(OC)c(N4CC[C@@H](O)C4=O)c3)n2cc1S(=O)(=O)C(C)(C)C` [Example 307, (R)-1-(5-(6-(tert-butylsulfonyl)-7-methoxyimidazo[1,2-a]pyridin-3-yl)-3-fluoro-2-methoxyphenyl)-3-hydroxypyrrolidin-2-one], the values for the IC50 in experiment [1] (setting [3]) and in experiment [2] were more than 0.02 µM and more than 1 µM, respectively.
As for `COc1cc2ncc(-c3cc(F)c(OC)c(NCCNC(=O)OC(C)(C)C)c3)n2cc1S(=O)(=O)C(C)(C)C` [Example 308, tert-butyl (2-((5-(6-(tert-butylsulfonyl)-7-methoxyimidazo[1,2-a]pyridin-3-yl)-3-fluoro-2-methoxyphenyl)amino)ethyl)carbamate], the results for the IC50 in experiment [1] and in experiment [2] were 0.001 to 0.0025 µM and 0.05 to 0.25 µM, respectively.
On to `COc1cc2ncc(-c3cc(NCCCO)ncc3C)n2cc1S(=O)(=O)C(C)(C)C` [Example 309, 3-({4-[7-Methoxy-6-(2-methylpropane-2-sulfonyl)imidazo[1,2-a]pyridin-3-yl]-5-methylpyridin-2-yl}amino)propan-1-ol], for which the IC50 was more than 0.02 µM in experiment [1] (setting [3]) and more than 1 µM in experiment [2].
Regarding `COc1cc2ncc(-c3cc(NCCCO)ncc3F)n2cc1S(=O)(=O)C(C)(C)C` [Example 310, 3-((4-(6-(tert-butylsulfonyl)-7-methoxyimidazo[1,2-a]pyridin-3-yl)-5-fluoropyridin-2-yl)amino)propan-1-ol], the IC50 in experiment [1] (setting [3]) was more than 0.02 µM; in experiment [2], more than 1 µM.
